The test system of data set [1] is MCF-7 breast cancer cells. Details: method as in doi:10.1016/j.bionut.2013.04.001. Particulars: cited from earlier work.
For data set [2], the system named is estrogen-induced uterotrophic effect. The data set is described as follows: In vivo anti-estrogenic (anti-uterotrophic) activity, immature rat model. Details: species or system Wistar immature female rats. Particulars: oral, 20 mg/kg (tamoxifen 20 mg/kg/day, 6j equimolar per method), 3 days, with estradiol 10 μg/kg/day s.c.; immature female rats. Here is the method: The anti-estrogenic activity was assessed as previously described.[65]−[67] All experiments were carried out in accordance with the recommendations of the […] Animal Care and Use Committee. The experimental protocol was approved by “The Commission on the Ethics of Scientific Research”, Faculty of Pharmacy, Minia University (no. ES30/2021). 20-day-old Wistar immature female rats (40–50 g) from the animal care facility of Nahda University at Beni Suef (NUB) were allowed to acclimatize to lab conditions for 3 days before the experiment with free access to food and water. Estradiol was diluted in olive oil and subcutaneously injected on the loose dorsal skin in a dose of 10 μg/kg/day. […] Both compounds were dissolved in a mixture of DMSO, Tween 20, and saline (1:1:8, respectively) and orally administered. The rats were randomly assigned to […] (n = 6) subjected to daily s.c. injections of estradiol, except for the control group. […] On the 4th day, all rats were sacrificed by cervical dislocation, and the uteri were dissected free of fat and weighed immediately. […] The results were expressed as percent inhibition from the formula [drawing 1] […] It is noteworthy that doses of the tested compounds are calculated on a molar basis. […] Values are expressed as mean ± SEM.

The test system of the next data set is MCF-7 cells. Put plainly: iCELLigence real-time cell analysis. The following applies: Homo sapiens, MCF7, MCF-7, 20 μM, relative to control, read-out: cell viability (% ± SEM). It is filed as cell-based, human. Here is the method: (§1) Therefore, compound 6j was applied in serial doses (2, 5, 10, 20, 50, and 100 μM) to MCF-7 cells and parallel to MCF-12A cells to determine the selectivity and safety. The treatments were performed 24 h after seeding the cells on system-specific biosensor-based plates. A total of 120 h of analyses were monitored, with cell viability measurements taken every 15 min. […] In addition, the viability percentage values for each dose in these periods were calculated and are summarized in Table 3 for MCF-7 and Table 4 for MCF-12A. […] In these treatments, cells were not killed dramatically after adding the highest two doses of 6j (100 and 50 μM); instead, they entered the stationary phase.
(§2) MCF-7 (Cat. no. HTB-22) (human estrogen receptor-positive breast cancer) and MCF-12A (Cat. no. CRL-10782) (human non-tumorigenic mammary epithelial) cell lines were obtained from the American Type Culture Collection (ATCC, Rockville, Maryland, USA). MCF-7 cells were maintained in Dulbecco’s modified Eagle’s medium (DMEM) (Biological Industries, Haemek, Israel) supplemented with 10% heat-inactivated fetal bovine serum (FBS) (Biowest, Nuaillé, France), 2 mM L-glutamine (Biological Industries, Haemek, Israel), 100 U/mL penicillin and 100 μg/mL streptomycin (Gibco, Waltham, MA, USA), and 2.5 μg/mL plasmocin (Invivogen, Toulouse, France) at 37 °C in a 5% CO2 humidified incubator. MCF-12A cells were cultured in a DMEM/F-12 Nutrient Mixture (Ham) (DMEM/F12 1:1 with HEPES and L-glutamine) (Gibco, Waltham, MA, USA) with 10% heat-inactivated FBS, 100 U/mL penicillin, 100 μg/mL streptomycin, and 10 μg/mL insulin (Humulin R, Lilly, Indianapolis, USA), 20 ng/mL epidermal growth factor (Abcam, Cambridge, UK), […] hydrocortisone (Dekort, Deva Ilac, Istanbul, Turkey), and 2.5 μg/mL plasmocin in a humidified atmosphere of 5% CO2 at 37 °C. The cells were routinely cultured in cell culture flasks and checked regularly under an inverted microscope. Cells reaching 80% confluency were passaged by treatment with 0.25% trypsin–EDTA. Total cell numbers were counted by the trypan blue dye exclusion method using a hemocytometer prior to the experiments.
(§3) The iCELLigence real-time cell analysis system was used to conduct a real-time and label-free examination of the activities of compound 6j on cells as we previously described.[62] In brief, following a background measurement with 200 μL of complete medium on iCELLigence E-plate L8, 100 μL of MCF-7 or MCF-12A cells was seeded at a density of 5.0 × 10^3 per well. During the 120 h monitoring, the system took impedance measurements via biosensors every 15 min. At the 24th h of incubation, the cells were treated with increasing concentrations of the 6j compound (2, 5, 10, 20, 50, and 100 μM) in duplicate. For cell culture experiments, compound 6j was dissolved in DMSO (Sigma, St. Louis, USA) at a stock concentration of 20 mM. For treatments, dilutions were prepared from 20 mM stock with a cell growth medium, with a final DMSO concentration of 0.1%. The medium containing 0.1% DMSO was also used as a negative control. […] Data were recorded by the iCELLigence software for 120 h and analyzed at the end of the study.

A short description of data set [3]: iCELLigence real-time cell analysis. The following applies: human, MCF-12A, 20 μM, relative to control, read-out: cell viability (% ± SEM). It counts as cell-based, human. As to the method:
as §1, §2, §3

Read-outs that look alike come from different tables or passages of the source.

One may read the IC50 as the concentration needed to halve the response being measured. `COc1ccc(C(=O)/C=C2/C(=O)Nc3ccc(Cl)cc32)cc1OC` [Compound III]: the concentration for half-maximal inhibition (IC50) in data set [1] was 3.59 µM.

Usually viability stands for a per cent measure of how many cells are alive, often set against a control. For the compound `CC/C(=C(\c1ccccc1)c1ccc(OCCN(C)C)cc1)c1ccccc1` [tamoxifen, reference compound], the “anti-uterotrophic activity (inhibition of estrogen-induced uterine weight)” value in data set [2] is recorded as 50%. Further, the viability at 20 µM with MCF-7 cells (24 h) stood at 86.84 ± 0.02%; with MCF-7 cells (48 h) it was 86.84 ± 0.02%; with MCF-7 cells (72 h) it was 85.59 ± 0.04%; in the data set on MCF-7 cells (96 h), 80.31 ± 0.07%. In addition, in data set [3] (MCF-12A cells (non-tumorigenic mammary epithelial), 72 h), the viability at 72 h, 20 µM stood at 84 ± 0.01%. For the same compound, in data set [3] (MCF-12A cells (non-tumorigenic mammary epithelial), 96 h), the viability at 96 h, 20 µM is 84 ± 0.01%. The viability at 24 h, 20 µM in data set [3] (MCF-12A cells, 24 h) was found to be 84 ± 0.01%. Moreover, the viability at 48 h, 20 µM in data set [3] (MCF-12A cells, 48 h) was 84 ± 0.01%.

Source of the values: PMC9948168, “Vanillin-Based Indolin-2-one Derivative Bearing a Pyridyl Moiety as a Promising Anti-Breast Cancer Agent via Anti-Estrogenic Activity” (ACS Omega, 2023).
